Data: patent publication US7495027B2, “3-aryl-4-hydroxyfuranone compounds and the human and animal health use thereof” (Wyeth, priority 2003, dated 2009)
≈ marks a conversion by molar mass, not a printed value. Like-named read-outs stand apart in the source and are kept apart here.

How the values were obtained:
[1] = system: staphylococci; assay: Minimum inhibitory concentration, microdilution broth method, staphylococci; type: cell-based; conditions: Staphylococcus aureus, Mueller-Hinton broth, 18-22 hours at 35° C.
How it was run: (§1)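 Broth microdilution per NCCLS M7-A5 (2000). Staphylococci and enterococci grown in Mueller-Hinton broth; streptococci in Mueller-Hinton broth with 5% horse blood (LHB). Panel includes recent clinical isolates resistant to methicillin, penicillin and/or vancomycin.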

[2] = target: E. coli UDP-N-acetylglucosamine enolpyruvoyl transferase, MurA (Escherichia coli, UniProt P0A749); assay: biochemical; conditions: (E) E. coli enzyme
E. coli UDP-N-acetylglucosamine enolpyruvoyl transferase, MurA, sequence (P0A749 whole entry): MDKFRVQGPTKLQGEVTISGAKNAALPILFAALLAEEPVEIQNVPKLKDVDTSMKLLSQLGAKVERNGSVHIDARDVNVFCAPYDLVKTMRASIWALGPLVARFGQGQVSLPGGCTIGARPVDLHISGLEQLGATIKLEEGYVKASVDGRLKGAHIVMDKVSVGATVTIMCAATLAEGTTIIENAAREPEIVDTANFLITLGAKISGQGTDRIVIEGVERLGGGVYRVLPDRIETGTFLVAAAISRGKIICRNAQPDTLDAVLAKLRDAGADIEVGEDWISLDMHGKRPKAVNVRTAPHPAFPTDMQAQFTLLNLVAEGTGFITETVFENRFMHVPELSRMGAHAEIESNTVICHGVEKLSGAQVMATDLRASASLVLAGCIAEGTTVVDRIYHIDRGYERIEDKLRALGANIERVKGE
How it was run: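 Enzyme in 50 mM Tris/HCl pH 8.0 with 5 mM DTT and 20% glycerol was pre-incubated 10 min at 37° C with test compound in DMSO/water. Tris/BME and assay buffer then started the 1 hr, 37° C reaction, with a baseline 340 nm reading taken at start. Stop solution followed, and colour developed 30 minutes.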

[3] = target: E. coli Uridine-diphosphate-N-acetylmuramoyl-L-alanine: D-glutamate liease, MurD (Escherichia coli, UniProt P14900); assay: biochemical; conditions: (E) E. coli enzyme
E. coli Uridine-diphosphate-N-acetylmuramoyl-L-alanine: D-glutamate liease, MurD, sequence (P14900 whole entry): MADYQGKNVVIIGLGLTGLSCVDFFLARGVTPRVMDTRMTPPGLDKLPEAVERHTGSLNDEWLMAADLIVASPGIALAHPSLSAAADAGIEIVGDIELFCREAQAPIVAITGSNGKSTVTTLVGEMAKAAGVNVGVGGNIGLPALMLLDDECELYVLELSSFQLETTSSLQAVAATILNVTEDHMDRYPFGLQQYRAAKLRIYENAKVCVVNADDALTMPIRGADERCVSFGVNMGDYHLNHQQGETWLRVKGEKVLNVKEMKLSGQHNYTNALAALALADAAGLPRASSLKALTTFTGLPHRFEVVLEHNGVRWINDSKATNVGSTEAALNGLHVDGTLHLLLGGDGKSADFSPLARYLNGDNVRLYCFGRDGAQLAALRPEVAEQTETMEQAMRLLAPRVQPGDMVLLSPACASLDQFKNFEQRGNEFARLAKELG
How it was run: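 Compound working solutions reach 100 μg/mL in 50 mM Tris/HCl (pH 8.5) after dilution of 10 mg/mL DMSO stocks; final level in the well not given here. Reaction buffer finals: 2 mM ATP, 50 mM MgCl2, 83 mM Tris/HCl, pH 8.0.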

[4] = system: Streptococci; assay: Minimum inhibitory concentration, microdilution broth method, streptococci; type: cell-based; conditions: S. pneumo GC 1894; Mueller-Hinton broth with 5% horse blood, 18-22 hours at 35° C.
How it was run: as §1

[5] = target: E. coli Enopyruvyl-UPD-N-acetylglucosamine reductase, Mur B (Escherichia coli, UniProt P08373); assay: biochemical; conditions: (E) E. coli enzyme; read-out: MurB IC50 (converted)
E. coli Enopyruvyl-UPD-N-acetylglucosamine reductase, Mur B, sequence (P08373 whole entry): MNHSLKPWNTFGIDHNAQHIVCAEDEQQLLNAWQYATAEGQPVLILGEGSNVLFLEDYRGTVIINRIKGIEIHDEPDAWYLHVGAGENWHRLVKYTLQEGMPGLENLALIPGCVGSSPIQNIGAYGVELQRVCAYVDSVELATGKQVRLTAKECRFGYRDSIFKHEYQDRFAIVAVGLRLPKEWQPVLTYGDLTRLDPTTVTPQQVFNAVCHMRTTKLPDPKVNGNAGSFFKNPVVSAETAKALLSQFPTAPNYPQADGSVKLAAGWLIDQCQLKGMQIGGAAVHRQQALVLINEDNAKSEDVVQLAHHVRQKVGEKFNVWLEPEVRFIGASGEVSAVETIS

[6] = system: enterococci; assay: Minimum inhibitory concentration, microdilution broth method, enterococci; type: cell-based; conditions: Enterococcus faecalis, Mueller-Hinton broth, 18-22 hours at 35° C.
How it was run: as §1

[7] = target: E. coli Uridine-diphosphate-N-acetvimuramoyl: L-alanine lipase, MurC (Escherichia coli, UniProt P17952); assay: Inhibitory activity against MurC (E. coli); type: biochemical; conditions: (E) E. coli enzyme; read-out: MurC IC50 (converted)
E. coli Uridine-diphosphate-N-acetvimuramoyl: L-alanine lipase, MurC, sequence (P17952 whole entry): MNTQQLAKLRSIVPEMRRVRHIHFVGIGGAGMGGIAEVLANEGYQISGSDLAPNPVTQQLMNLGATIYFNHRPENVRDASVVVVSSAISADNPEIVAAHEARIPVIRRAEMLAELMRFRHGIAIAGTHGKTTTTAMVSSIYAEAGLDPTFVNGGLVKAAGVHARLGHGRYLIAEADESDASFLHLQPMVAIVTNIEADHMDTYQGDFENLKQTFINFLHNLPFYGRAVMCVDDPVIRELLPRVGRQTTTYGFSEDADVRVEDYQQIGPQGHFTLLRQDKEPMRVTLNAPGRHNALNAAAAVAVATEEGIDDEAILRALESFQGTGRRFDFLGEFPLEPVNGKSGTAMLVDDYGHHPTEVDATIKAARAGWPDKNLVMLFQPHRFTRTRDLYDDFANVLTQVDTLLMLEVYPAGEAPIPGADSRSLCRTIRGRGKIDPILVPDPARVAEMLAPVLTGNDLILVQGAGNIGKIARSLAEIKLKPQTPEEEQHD

[8] = target: T1, S. aureus Uridine-diphosphate-N-acetylmuramoyl-L-alanine: D-glutamate liease, MurD (Staphylococcus aureus, UniProt Q2FZ92); assay: biochemical; conditions: (S) S. aureus enzyme
T1 sequence (Q2FZ92 1-449): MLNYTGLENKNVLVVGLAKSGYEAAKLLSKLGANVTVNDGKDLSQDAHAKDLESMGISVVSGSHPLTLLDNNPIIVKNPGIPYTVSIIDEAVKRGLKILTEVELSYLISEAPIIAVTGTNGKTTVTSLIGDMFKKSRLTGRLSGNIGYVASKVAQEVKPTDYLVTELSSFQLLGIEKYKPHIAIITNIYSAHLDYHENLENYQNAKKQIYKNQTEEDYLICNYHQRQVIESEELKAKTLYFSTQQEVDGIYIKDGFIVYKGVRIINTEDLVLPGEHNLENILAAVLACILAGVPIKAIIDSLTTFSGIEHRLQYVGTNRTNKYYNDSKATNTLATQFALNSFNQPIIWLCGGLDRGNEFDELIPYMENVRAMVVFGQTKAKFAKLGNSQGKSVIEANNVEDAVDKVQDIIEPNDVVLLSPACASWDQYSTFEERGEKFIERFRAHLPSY
Procedure: S. aureus and E. coli Uridine-diphosphate-N-acetylmuramoyl-L-alanine: D-glutamate liease, MurD
(§2) Preparation of Enzyme Solution:
(§3) Preparation of Test Compound Solutions:
(§4) All test solutions are prepared in DMSO as 10 mg/mL, then diluted with 50 mM Tris/HCl (pH 8.5) to 100 μg/mL.
(§5) Preparation of Stop Solution:
In this evaluation, the inhibitory activity of a test compound against MurD, the enzyme which catalyzes the fourth step of bacterial cell wall biosynthesis is determined.

[9] = target: T2, S. aureus Uridine-diphosphate-N-acetvimuramoyl: L-alanine lipase, MurC (Staphylococcus aureus, UniProt Q2FXJ0); assay: biochemical; conditions: (S) S. aureus enzyme; read-out: MurC IC50 (converted)
T2 sequence (Q2FXJ0 1-437): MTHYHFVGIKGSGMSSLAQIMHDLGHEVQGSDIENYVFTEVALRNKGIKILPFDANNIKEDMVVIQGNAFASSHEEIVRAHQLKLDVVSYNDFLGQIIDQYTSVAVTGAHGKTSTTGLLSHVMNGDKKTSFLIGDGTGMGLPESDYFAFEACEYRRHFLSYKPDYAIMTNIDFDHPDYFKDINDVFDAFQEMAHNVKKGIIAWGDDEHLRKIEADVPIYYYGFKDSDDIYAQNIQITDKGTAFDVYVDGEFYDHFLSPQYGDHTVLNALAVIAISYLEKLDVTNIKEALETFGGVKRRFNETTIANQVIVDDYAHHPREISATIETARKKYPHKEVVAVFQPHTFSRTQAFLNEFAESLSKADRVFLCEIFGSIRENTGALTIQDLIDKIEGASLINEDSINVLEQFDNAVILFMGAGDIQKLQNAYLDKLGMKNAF
Procedure: S. aureus and E. coli Uridine-diphosphate-N-acetvimuramoyl: L-alanine lipase, MurC
as §2
A 1 mg/mL stock solution of MurC is prepared in a buffer consisting of 20 mM Tris/HCl (pH 8.5) with 2.5 μM BME. The stock solution is further diluted with the buffer to give a final enzyme concentration of 100 μg/mL for the E. coli stock solution and 70 μg/mL for the S. aureus stock solution.
as §3, §4, §5
The stop solution is prepared by stirring 1 part 4.2% ammonium molydbate in 4N HCl with 2 parts 0.045% malachite green for 30 min.
In this evaluation, the inhibitory activity of a test compound against MurC, the enzyme which catalyzes the third step of bacterial cell wall bioxynthesis is determined. Experiments are performed by adding 2.5 μl buffer, 2.5 μl 0.5M NH4SO2, 5 μl 2 μM L-Ala, 5 μl enzyme solution and 6.5 μl test compound solution to each well in a 96-well microplate. After a pre-incubation period of 10 mins. at 23° C., 3.75 μl of a 0.75 μM solution of UDP-MurNac is added to each well. Following an incubation period of 10 mins. at 37° C., 210 μl stop solution and 50 μl of a 34% w/v sodium citrate solution are added and color is allowed to develop for 10 mins. at 23° C. (Lanzetta et al., Analytical Biochemistry, 1979, 95) Optical density readings are taken at 660 nm using a Molecular Devices Spectra Max 250 with Soft Max software. Controls are performed using the same procedure and omitting the addition of UDP-MurNac. […]
Using these values the IC50 is determined by linear regression analysis.

[10] = target: T3, S. aureus UDP-N-acetylglucosamine enolpyruvoyl transferase, MurA (Staphylococcus aureus, UniProt P84058); assay: Inhibitory activity against MurA (S. aureus); type: biochemical; conditions: (S) S. aureus enzyme
T3 sequence (P84058 1-421): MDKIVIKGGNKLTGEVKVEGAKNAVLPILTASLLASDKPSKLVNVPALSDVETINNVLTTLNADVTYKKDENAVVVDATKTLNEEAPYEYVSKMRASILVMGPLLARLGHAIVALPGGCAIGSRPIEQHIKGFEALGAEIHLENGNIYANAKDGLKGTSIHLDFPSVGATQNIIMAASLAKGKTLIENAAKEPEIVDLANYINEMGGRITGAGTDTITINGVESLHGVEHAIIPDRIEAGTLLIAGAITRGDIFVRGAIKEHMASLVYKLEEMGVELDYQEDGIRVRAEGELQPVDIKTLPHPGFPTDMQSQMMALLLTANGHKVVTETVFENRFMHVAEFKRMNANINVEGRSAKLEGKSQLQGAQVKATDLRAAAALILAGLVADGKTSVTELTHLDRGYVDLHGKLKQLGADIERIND
Procedure: Evaluation of the Inhibitory Activity of Test Compounds Against Enzymes which Catalyze Bacterial Cell Wall Biosynthesis
S. aureus and E. coli UDP-N-acetylglucosamine enolpyruvoyl transferase, MurA
as §2
The enzyme solution is prepared by admixing the following: 50 mM Tris/HCl pH 8.0, […] 1 M Tris, 5 mM DTT, […] 1 M DTT, 20% Glycerol 4 ml 50% Glycerol, add water to 10 ml.
as §5
The stop solution is prepared by mixing the following: 4.2% ammonium molybdate in 4N HCl, 8.4 g/200 ml 4N HCl, 0.045% malachite green, 90 mg/200 ml water, then stir 1 part ammonium molybdate with 2 parts malachite green for 30 min.
A procedure similar to that described by C. T. Walsh in Biochemistry 33, 10646-10651, is used to evaluate the inhibitory activity of test compounds against MurA, the enzyme which catalyzes the first step of bacterial cell wall biosynthesis. Experiments are performed by adding a solution of test compound (in a mixture of dimethylsulfoxide and water) and an enzyme solution to a well. After a pre-incubation period of 10 mintues at 37° C., Tris/BME buffer and assay buffer are added. A start point optical density (OD0) reading is taken at 340 nm immediately following the addition of assay buffer. After incubation for 1 hr at 37° C., the stop solution is added and the color is allowed to develop for 30 minutes. An end point OD1 reading at […] is then taken. […]

[11] = S. aureus GC 1131, read-out: MIC S. aureus GC 1131
[12] = S. aureus GC 4543, read-out: MIC S. aureus GC 4543
[13] = E. faecalis GC 2242, read-out: MIC E. faecalis GC 2242
[14] = E. faecalis GC 4555, read-out: MIC E. faecalis GC 4555

Row | IC50 [8] [µM] | IC50 [9] [µM] | IC50 [10] [µM] | Structure (SMILES) | MIC [1, 11] [µg/mL] | MIC [1, 12] [µg/mL] | IC50 [2] [µM] | IC50 [3] [µM] | MIC [4] [µg/mL] | IC50 [5] [µM] | MIC [6, 13] [µg/mL] | MIC [6, 14] [µg/mL] | IC50 [7] [µM] | melting point [°C]
1 | – | – | – | O=C1O/C(=C\c2ccc(Cl)cc2)C(O)=C1c1cccc2ccccc12 [Example 46] | 64 (≈ 183 µM) | 32 (≈ 91.7 µM) | > 71.7 | > 71.7 | 16 (≈ 45.9 µM) | > 71.7 | 64 (≈ 183 µM) | 32 (≈ 91.7 µM) | 45.9 | 235 to 237
2 | 15 | 8.6 | 30.1 | CC(=O)c1ccccc1-c1ccc(/C=C2\OC(=O)C(c3cc(Cl)cc(Cl)c3)=C2O)cc1C [Example 40] | 1 (≈ 2.15 µM) | 1 (≈ 2.15 µM) | – | – | < 0.125 | – | 2 (≈ 4.3 µM) | 2 (≈ 4.3 µM) | – | –
3 | – | – | – | COc1ccc(C2=C(O)/C(=C/c3ccc4ccccc4c3)OC2=O)cc1 [Example 7] | 32 (≈ 92.9 µM) | 64 (≈ 186 µM) | > 72.6 | > 72.6 | 2 (≈ 5.81 µM) | 61 | 32 (≈ 92.9 µM) | 64 (≈ 186 µM) | 37.8 | 257 to 258.5
4 | – | – | – | O=C1O/C(=C\c2cccc3ccccc23)C(O)=C1c1ccc2ccccc2c1 [Example 44] | 4 (≈ 11 µM) | 8 (≈ 22 µM) | 49.4 | > 68.6 | 1 (≈ 2.74 µM) | 19.2 | 8 (≈ 22 µM) | 16 (≈ 43.9 µM) | 16.5 | 205 to 207
